# Experimental data: publication PMC5200956 (ChemMedChem, 2016)
# Like-named read-outs stand apart in the source and are kept apart here.
# Key:
# [1] = Cytotoxicity for Vero cells; format: cell-based; details: African green monkey
# T. gondii (tachyzoites) [2] = assay: T. gondii tachyzoites growth assay; format: cell-based, Toxoplasma gondii; details: means ± SD, n = 3
# T. cruzi (amastigotes) [3] = assay: T. cruzi amastigote growth assay; format: cell-based, Trypanosoma cruzi; details: for EC50: read-out: T. cruzi growth EC50, intracellular amastigotes, means ± SD, n = 3; for antiparasitic activity against T. cruzi (in words): amastigotes
# Vero cells = assay: Cytotoxicity for Vero cells; format: cell-based; details: read-out: Cytotoxicity EC50
# HhFPPS = target: T1, HhFPPS (Homo sapiens, UniProt P14324); assay: HhFPPS enzyme inhibition; format: biochemical; details: read-out: HhFPPS IC50; means ± SD, n = 3
# T1 sequence (P14324 67-419 limits assumed): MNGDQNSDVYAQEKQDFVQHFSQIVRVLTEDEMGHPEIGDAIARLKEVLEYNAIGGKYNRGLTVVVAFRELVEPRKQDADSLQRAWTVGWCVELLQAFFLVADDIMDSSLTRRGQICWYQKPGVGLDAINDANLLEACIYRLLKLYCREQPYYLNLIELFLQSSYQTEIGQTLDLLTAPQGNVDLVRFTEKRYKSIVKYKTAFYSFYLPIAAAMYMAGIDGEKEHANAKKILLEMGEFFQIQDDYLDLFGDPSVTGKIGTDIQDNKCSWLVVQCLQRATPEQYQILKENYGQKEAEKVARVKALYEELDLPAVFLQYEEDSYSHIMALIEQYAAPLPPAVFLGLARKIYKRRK
# TgFPPS = TgFPPS enzyme inhibition; format: biochemical, Toxoplasma gondii; details: read-out: TgFPPS IC50; means ± SD, n = 3
# TcFPPS = target: T2, TcFPPS (Trypanosoma cruzi, UniProt Q8WS26); assay: TcFPPS enzyme inhibition; format: biochemical; details: read-out: TcFPPS IC50; means ± SD, n = 3
# T2 sequence (Q8WS26 1-425): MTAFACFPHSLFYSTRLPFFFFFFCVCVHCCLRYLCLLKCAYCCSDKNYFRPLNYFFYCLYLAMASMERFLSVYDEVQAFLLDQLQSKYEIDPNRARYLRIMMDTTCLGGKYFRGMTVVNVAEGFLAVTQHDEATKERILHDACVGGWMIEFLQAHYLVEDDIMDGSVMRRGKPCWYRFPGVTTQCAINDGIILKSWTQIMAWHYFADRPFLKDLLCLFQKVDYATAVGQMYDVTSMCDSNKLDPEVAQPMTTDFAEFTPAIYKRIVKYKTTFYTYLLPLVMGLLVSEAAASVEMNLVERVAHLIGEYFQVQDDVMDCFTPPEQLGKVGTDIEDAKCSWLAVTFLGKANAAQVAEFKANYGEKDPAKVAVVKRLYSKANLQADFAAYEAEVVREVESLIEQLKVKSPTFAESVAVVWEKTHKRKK
# [4] = test system: T. cruzi squalene synthase (TcSQS); details: cited from earlier work; for IC50: read-out: TcSQS IC50, enzymatic activity of TcSQS
# T. gondii (tachyzoites) [5] = details: read-out: T. gondii growth EC50; cited from earlier work
# T. cruzi (amastigotes) [6] = details: read-out: T. cruzi growth EC50; cited from earlier work
# [7] = Toxoplasma gondii, read-out: T. gondii growth EC50, tachyzoites
# [8] = read-out: T. gondii growth EC50, tachyzoites
SMILES,EC50 [1],EC50 (T. gondii (tachyzoites) [2]; [7]),EC50 (T. gondii (tachyzoites) [2]; [8]),EC50 (T. cruzi (amastigotes) [3]),antiparasitic activity against T. cruzi (in words) (T. cruzi (amastigotes) [3]),IC50 (HhFPPS),IC50 (TgFPPS),further results
"N#CSCCOc1cccc(Oc2ccccc2F)c1 [Compound 20, 3-(2-Fluorophenoxy)phenoxyethyl Thiocyanate]",> 60 µM,3.1 µM,3.12 ± 0.37 µM,7.01 ± 0.51 µM,–,–,–,–
"N#CSCCOc1cccc(Oc2cccc(F)c2)c1 [Compound 21, 3-(3-Fluorophenoxy)phenoxyethyl Thiocyanate]",> 50 µM,1.6 µM,1.63 ± 0.36 µM,5.38 ± 0.82 µM,–,–,–,–
"N#CSCCOc1cccc(Oc2ccc(F)cc2)c1 [Compound 22, 3-(4-Fluorophenoxy)phenoxyethyl Thiocyanate]",> 55 µM,4.9 µM,4.92 ± 1.94 µM,5.69 ± 0.47 µM,–,–,–,–
"N#CSCCOc1ccc(Oc2ccccc2F)cc1 [Compound 27, 4-(2-Fluorophenoxy)phenoxyethyl Thiocyanate]",> 55 µM,4.5 µM,4.54 ± 0.57 µM,–,devoid of antiparasitic activity,–,–,–
"N#CSCCOc1ccc(Oc2ccncc2)cc1 [Compound 31, 4-(4-pyridyl)oxyphenoxyethyl Thiocyanate]",> 200 µM,7.9 µM,–,–,free of antiparasitic activity,–,–,–
"O=P(O)(O)C(CNCCOc1ccc(Oc2ccccc2)cc1)P(=O)(O)O [Compound 43, 1-[(4-Phenoxyphenoxyethylamino)ethyl]-1,1-bisphosphonic Acid]",–,–,5.9 ± 0.07 µM,> 10 µM,–,> 10 µM,0.094 ± 0.02 µM,EC50 (Vero cells): > 100 µM
O=P(O)(O)C(CSCCOc1ccc(Oc2ccccc2)cc1)P(=O)(O)O [Compound 48],–,–,> 10 µM,> 20 µM,–,> 15 µM,0.362 ± 0.002 µM,EC50 (Vero cells): > 200 µM; IC50 (TcFPPS): 0.8 ± 0.12 µM
"O=P(O)(O)C(CNCCOc1cccc(Oc2ccccc2)c1)P(=O)(O)O [Compound 53, 1-[(3-Phenoxyphenoxyethylamino)ethyl]-1,1-bisphosphonic Acid]",–,–,2.4 ± 0.7 µM,> 10 µM,devoid of activity,> 10 µM,0.04 ± 0.002 µM,EC50 (Vero cells): > 50 µM; IC50 (TcFPPS): > 10 µM
"O=P(O)(O)C(CSCCOc1cccc(Oc2ccccc2)c1)P(=O)(O)O [Compound 58, 2-[3-(Phenoxy)phenoxyethylthio]ethyl-1,1-bisphosphonic Acid]",–,–,0.67 ± 0.23 µM,> 10 µM,devoid of activity,> 10 µM,0.076 ± 0.019 µM,"EC50 (Vero cells): > 100 µM; EC50 (T. gondii (tachyzoites) [2]; read-out: T. gondii growth EC50, tachyzoites, listed as 2-[3-(phenoxy)phenoxyethylthio]ethyl-1,1-bisphosphonate): 0.7 µM"
"O=P(O)(O)C(CNCCOc1ccccc1)P(=O)(O)O [Compound 63, 1-[(Phenoxyethylamino)ethyl]-1,1-bisphosphonic Acid]",–,–,> 10 µM,> 10 µM,–,> 10 µM,0.18 ± 0.015 µM,IC50 (TcFPPS): 0.32 ± 0.04 µM
"N#CSCCOc1ccc2ccccc2c1 [Compound 68, 2-(Naphthalen-2-yloxy)ethyl Thiocyanate]",–,3.6 µM,–,–,vanishing inhibitory action,–,–,–
"N#CSCCOc1cccc2ccccc12 [Compound 73, 2-(Naphthalen-1-yloxy)ethyl Thiocyanate]",7.5 µM,3.1 µM,–,–,vanishing inhibitory action,–,–,–
CO[C@@H]1CN(c2ccc(C#C[C@]3(O)CN4CCC3CC4)c(Cc3ccccc3)n2)C[C@@H]1O [Compound E5700],–,–,–,–,–,–,–,type of inhibition of TcSQS [4]: mixed-type; IC50 [4]: 0.00084 µM
COCCCOc1ccc(C#C[C@@]2(O)CN3CCC2CC3)c(Cc2ccccc2)n1 [ER-119884],–,–,–,–,–,–,–,type of inhibition of TcSQS [4]: non-competitive; IC50 [4]: 0.0035 µM
"N#CSCCOc1ccc(Oc2ccccc2)cc1 [WC-9, 4-Phenoxyphenoxyethyl thiocyanate]",–,–,–,–,–,–,–,EC50 (T. gondii (tachyzoites) [5]): 4.8 ± 0.41 µM; type of inhibition of TcSQS [4]: non-competitive; EC50 (T. cruzi (amastigotes) [6]): 5 ± 1.1 µM
